According to patent US20140099354A1, “BIOPASSIVATING MEMBRANE STABILIZATION BY MEANS OF NITROCARBOXYLIC ACID-CONTAINING PHOSPHOLIPIDS IN PREPARATIONS AND COATINGS” (priority 2011, published 2014):
Like-named read-outs stand apart in the source and are kept apart here.

Assays:
[1] = test system: HeLa, HUVEC and L929 fibroblast; test: cells; type: cell-based; settings: for EC50: after 48 hours; for viability as quantified by the MTT assay: tested concentrations 10 μmol to 1 mmol, EC50 could not be calculated
Experimental: (§1) Physiologically occurring phospholipids can be taken up by virtually all cell lines in large quantities. It is known that phospholipids that contain non-physiologically occurring fatty acid residues can cause cell lyses or death. Three cell lines (HeLa, HUVEC and L929 fibroblast) were cultured in a suitable culture medium of 5% FCS at 37° C. and 5% CO2 concentrations to a subconfluent concentration of 1.5×10^5 cells.
SOPC, DOPC, POPC, ONOPC, PNLPC, and the free fatty acids of OA, LA, NOOA, and NOLA were dissolved in 0.5% DMSO. […] Cell cultures were incubated for 24 h and 48 h. Thereafter, the culture medium was removed and the cells washed twice. Following this, cells suspensions were given in four vials to perform the following analysis:
For the determination of viability, phenol red was added to the suspended cells. After 4 h, the medium was renewed and 10 μl of the MTT solution was added. The cells were cultured for 4 hours, and then a 10% SDS solution was pipetted. After 24 h, absorption of formazan crystals was measured at 500 nm using a power wave X (bio-tek instruments, Inc., USA). For the quantitative comparison of toxicity, the EC50 was determined.

[2] = test system: HeLa, HUVEC and L929 fibroblast; test: Volumetric measurement of cells (Coulter counter); type: cell-based; settings: time-dependent increase after incubation
Experimental: as §1
(§2) SOPC, DOPC, POPC, ONOPC, PNLPC, and the free fatty acids of OA, LA, NOOA, and NOLA were dissolved in 0.5% DMSO. Experiments were performed also with nitro-carboxylic acid-containing phospholipids according to examples N15-N20, G, O3, O5, P2, P5, P8, P9, P11 and Q. PL prepared as aqueous suspensions were added the culture flasks in order to achieve PL concentrations in the culture medium from 10 μmol to 1 mmol. Cell cultures were incubated for 24 h and 48 h. Thereafter, the culture medium was removed and the cells washed twice. Following this, cells suspensions were given in four vials to perform the following analysis:
Volumetric measurement of cells was done in a Histopenz (Sigma) solution with an effective NaCl concentration of 0.9% (approximately 290 mOsm) heated to 37° C. in which the cells were suspended; thereafter the solution was sonified for 2 minutes. Measurements were done using a Coulter counter Z2.

[3] = test system: HeLa, HUVEC and L929 fibroblast; test: Cell viability with the live/dead assay; type: cell-based
Experimental: as §1, §2
Studies of cell viability were carried out with the live/dead assay (Molecular Probes). For this purpose, the cells were washed twice with PBS solution and then seeded into a culture medium. Incubation with the staining solution (in 0.1% DMSO) was carried out over 30 minutes in the dark. The viability analyses were performed using fluorescence microscopy.

[4] = Tissue response to coated silicone implants in vivo after bleomycin; set-up: species or system Wistar rats; settings: silicone cushions, subcutaneous, 7 to 90 days
Experimental: Induction of fibrotic tissue production by connective tissue activation as a consequence of implantation of foreign material was examined in an in-vivo animal model. As implant materials, sterile silicone cushions having a diameter of 1 cm were used.
In male Wistar rats (190-240 g) that were fed and housed under identical conditions for one week, general anaesthesia was performed by intramuscular injection of 0.008 mL/100 g ketamine and 0.004 mL/100 g xylocaln chloride 2%. Then the back of the animals was shaved, sterilized and infiltrated with xylocalne chloride. A paravertebral incision was made on both sides with a length of 1.5 cm followed by preparation of the subcutaneous tissue, so that on both sides approx. 2×2 cm cavities were preformed. Hemostasis was achieved by cauterization, if necessary. Then balls of cotton saturated with Bleomycin (cell-pharm GmbH, Hannover, Germany: 1% in 0.9% NaCl solution) were inserted into the cavities for 3 minutes and then removed. Without rinsing the cavities, the implants coated with a nitrated phospholipid were inserted into the cavity on the left side and the implants coated with natural phospholipid into the cavity on the right side. Thereafter, a layer by layer wound closure was performed and a sterile adhesive bandage was applied.
The animals were kept according to standard conditions for 7, 14, 30, 60 and 90 days. At any study time endpoint, two animals were euthanized. After death the well visible and palpable implants were removed using en-block resection technique. The resected specimens were fixed and embedded in paraffin. Then they were cut in half and the liquid silicone was removed. The specimens were embedded again and cut into thin slices which were stained with H & E and Sirius red, and evaluated by light microscopy. Evaluation was done according to the following criteria:
A1: none; A2: occasional monocytic cells or lymphocytes; A3: moderate numbers or groups of monocytic cells or lymphocytes; A4: dense infiltration of monocytes, eosinophils, or giant cells.
B1: none; B2: collagen-rich layer around the implant; B3: thick (>1 mm) and dense collagen-rich tissue formation around the implant.
In every 10th serial section 10 fields of view uniformly distributed over the circumference of the implant were evaluated and the herein predominant expression was assigned to an event table. In total, 200 fields of view were analyzed per implant

[5] = Abrasion stability and traction work load of coated balloon catheters; type: physicochemical
Experimental: Balloon catheters were coated by means of the Langmuir-Schaefer procedure where the balloon segment was aligned longitudinally and coaxial to the solution surface, dipping into the liquid for approx. 1 mm over the entire length. Then the catheter was slowly rotated around its axis 5 times. Phospholipids were dissolved at a concentration of 3 mmol in an ion-free aqueous solution at 50° C. The solution was cooled and given to the coating solution then. In case of incomplete dissolution of the phospholipids or if they separated when cooled, DMSO was added at a concentration of up to 20 vol.-%, preferably up to 10 vol.-%. After coating, the catheters were vacuum dried for 8 hours in order to remove residual solvent.
The tubing was filled with a 10% human albumin solution at a temperature of 35° C. The cable system, which had previously been brought through the tubing was connected to the catheter tip and tracked outside the tubing by reversing pulleys, which allowed exactly vertically traction of the cable that was connected to a motorized winch. The winch was mounted on a digital precision balance. The catheters mounted in this manner were pulled through the tubing system and the weight changes measured by the balance, which represented the traction work load achieved for the passage of the catheter, was recorded continuously. These readings were integrated over time. The resultant values allow estimation of the total shear force that occurred during the passage of the catheter through the tubing system.
The abrasion or loss of coating layers was determined by weighing the catheter before and after coating as well as after the mechanical stability test in the tubing system as described above using a high precision balance.

TRPV1, 2 and 4, TRPA1 = test: Inducible ion current of TRP receptors in Xenopus oocytes (voltage clamp); type: cell-based, rat; settings: 50 mmol/l, 10 and 60 minutes
Experimental: An established in-vitro model of Xenopus oocytes (Dascal N, 1987 The use of Xenopus oocytes. CRC critical reviews in biochemistry 22, 317-387) was used to study the influence of incubation with PL on ion channels regulated by membrane receptors. Defolliculized oocytes were transfected with cRNA (rat) of TRPV1, 2 and 4, as well as of TRPA1, stored in tissue culture plates and incubated in culture medium (ND 96) at 15° C. under constant motion in the incubator for 7 to 10 days.
Induced leakage currents through activation of the TRP receptors was determined by means of double electrode voltage-clamp technique (Ahern G P, Brooks I M, Miyares R L &Wang X B, 2005, Extracellular cations sensitize and gate capsaicin receptor TRPV1 modulating pain signalling. J Neurosci 25, 5109-5116). Ooocytes were probed with borosilicate glass capillaries (Clark) and connected to a feedback amplifier (Gene clamp Amplifier, Axon instruments). The membrane potential of oocytes was clamped to −60 or −90 mV. The presence of a directive […] current was compared to non-transfected controls. The investigations were performed in a miniature organ bath in calcium-free buffered (Hepes, pH 7.3) NaCl solution. The TRPV1 receptor excitation was initiated by rapidly changing of the bath solution against a capsaicin solution (10 μmol). Results of non-pretreated oocytes were used for normative comparison of subsequent measurements of incubatesd cells. Investigations with incubated cells were carried out in the same way for oocytes transfected with the TRPV2, and TRPV4 and TRPA1 receptors, wherein the receptor agonists cannabidiol (10 μmol) and 4α-PDD (4α-phorbol 12,13-didecanoate, 50 μmol) and innamaldehyde (50 μmol) were used instead of capsaicin.

sciatic nerve = test: Viability of cryopreserved nerve grafts (Annexin-V staining, FACS); type: cell-based, rats; settings: 100 mmolar solution 1 hour; −30° C. 72 hours
Experimental: The sciatic nerve was prepared and sectured in anesthetized rats. The nerve pieces were freed from connective tissue and divided into 3 parts. Specimens were placed in culture DMEM medium containing low a concentration of glucose (1 g/L) with L-glutamine (PAA, Pasching Austria) for 24 hours. […] Nerve specimens from the same animals that received no pretreatment served as controls. After incubation, the specimens were cultured for 24 hours. In a further control group, specimens were cryopreserved without any pretreatment. The specimens were covered with a sterile gauze pad moistened with culture medium. Thereafter the temperature was gradually cooled to −30° C. After 72 hours, the nerve pieces were gradually rewarmed to 37° C. After this, renewed culturing was done for 48 hours. The nerve pieces were dissected enzymatically then (collagenase A and D, Roche, Mannheim, Germany) followed by a mechanical separation through multiple uptake and release in a glass pipette. The isolated cells were washed and marked with a living/death staining (Annexin-V-Fluos staining Kit, Roche Diagnostics, Mannheim, Germany) and quantified using FACS analysis. The number of living cells identified was set in relation to the total cells count.

cortical neurons = test: Hypoxia and reperfusion of cortical neurons (viability, LDH)
Experimental: To determine whether the membrane-stabilizing properties of nitrated phospholipids can lead to attenuation of effects due to an ischemic event or the re-perfusion damage, cortical neurons and cardiac myocytes were investigated.
Freshly prepared cortex tissue was separated with Papain and tissue suspensions were cultured in culture vessels (Prim ARA; BD Biosciences, USA) with Neurobasal A/B27 medium (Invitrogen) for 10-12 days. Cell suspensions were divided, and replenished with suspensions of the natural phospholipids SOPC and PLPC, as well as the analogue phospholipids with nitration of unsaturated fatty acids (1-stearoyl-2-(9-nitrooleoyl)-sn-PC and 1-palmitoyl-2-(9-nitrolinoleoyl)-sn-PC) at concentrations of 10 to 50 μmol/l in NaCl (0.9%) were added. […] After 4 hours, the cells were washed three times with buffered saline and buffered NaCl solution with the addition of MgCl2 and CaCl2 in an anaerobic atmosphere (85% N2, 5% O2, 10% CO2; at 35° C.) for 10 and 30 minutes. Then, the cells were washed once and grown in culture medium under aerobic conditions for 24 hours. […] Cells were stained with annexin V-FITC and propidium iodide (Molecular probes, USA). The vital and necrotic cells were measured by flow cytometry (FACSCalibur, Becton & Dickinson). The volume of culture medium was determined and an aliquot was taken for determination of the LDH (lactate dehydrogenase) concentration.

[6] = test system: Cardiac muscle cells derived from neonatal rat heart; test: Hypoxia of cardiac muscle cells (viability, mitochondrial NAD+); type: cell-based; set-up: loss of viability of heart muscle cells after hypoxia: concentration or dose not given beside the values; settings: for mitochondrial NAD+ content: hypoxia, baseline 5
Experimental: Cardiac muscle cells derived from neonatal rat heart (Nitobe J, et al, Reactive oxygene species regulate FLICE inhibitory protein and susceptibility to FAS-mediated apoptosis in cardiac myocytes. Cardiovasc RES 2003, 119-28). The heart muscle cells were cultured in Dulbecco/Eagle medium (DMEM) with 10% FCS added under standard conditions for two days. Incubation with the natural and nitrated phospholipids, as well as the hypoxia experiments were carried out as described above. Incubated cells were grown in culture medium under standard conditions for 24 hours. This is followed by a vitality staining as described above. […] The frozen cells were thawed up to -4° C. and homogenized for subsequent NAD^+ analyses. By means of differential centrifuge, pellets containing mitochondria were separated (Di Lisa, et al, 1993; Am. J. Physiol. 264, […]-[…]). The NAD^+ content was determined by fluoroscopy, and normalized to the protein content (Veloso, D., and […]., 1974;) Anal. Biochem., 449-450).

ovarian tissue strips [7] = test: Cryopreservation of ovarian tissue strips: 17 β-estradiol and progesterone (radio-immuno assay); type: cell-based, sheep; settings: after cryopreservation and culture
Experimental: Ovar ectomy was performed in female sheep; resected tissues were cut into 60 ovarian tissue strips. The ovarian strips were either cultured directly (n=4) or prepared with a usual solution for vitrification (VS group; Vitrification Kit, Sage, USA) or incubated with nitrated PLs (NPL group). For this purpose, the tissue strips were bathed in an equibrilation solution (ART-8025-A) which consisted of MOPS-buffered amino acids and gentamicin sulfate (10 mg/l), and 7.5% (v/v) of each DMSO and ethylene glycol and 12 mg/ml human serum albumin for 30 minutes. Thereafter the strips of the VS group were placed in the vitrification solution (ART-8025-B), which is a MOPS-buffered solution containing amino acids and gentamicin sulfate, that contain 15% (v/v) each DMSO and ethylenglycol, 12 mg/ml human albumin and 0.6 M sucrose. The strips of the NPL group were placed in a solution containing 25% (v/v) nitrated PL SNOPC or PNLPC in a PBS-buffered 1% DMSO solution containing 5% human albumin for 60 minutes. The treated tissue strips were then immersed into liquid nitrogen and kept here for 14 days. Then removal and warming of the tissue pieces was performed in AIM-V medium (Gibco, Invitrogen) in a sterile culture dish, first up to 5° C. within 20 minutes, then heated further in a water bath up to 37° C., within the following 60 minutes. The culture medium was replaced and specimens cultured for 14 days. After this, the tissue pieces were fixed, embedded in paraffin and cut, followed by histological examination. […] The total number of intact follicles in the control group was taken as a reference to the number of follicles in the cryopreserved groups.
The culture medium has been exchanged by every 2nd day; samples for hormone analysis were taken and frozen at that time. Determination of 17 β-estradiol and progesterone were performed with a radio-immuno assay (diagnostic systems laboratories, USA).

[8] = test system: Heart muscle cells from rabbit hearts; test: Cytosolic Ca2+ concentration in heart muscle cells (fluo-4 fluorescence); type: cell-based
Experimental: Heart muscle cells were taken from rabbit hearts according to a method described elsewhere (Shannon T R, Ginsburg K S, Bers D M. Quantitative assessment of the SRCa^2+ leak-load relationship. Circ Res. 2002; 91:594-600). The prepared cells were cultured for 72 hours.
The cytosolic Ca^2+ concentrations were determined with fluo-4 fluorescence. Therefore the cells were incubated with 10 μmol fluo-4 AM (1%) for 30 minutes and washed thereafter three times with PBS. The cells were stimulated in a Tryode solution on a platinum electrode with a frequency of 0.5 Hz over 20 cycles. Then the ambient medium was changed and an electrolyte-free colloidal solution was added. Determination of the Ca concentration was performed after each series of stimulation over 20 cycles. Calcium content was estimated by the use of confocal laser scanning microscopy (Olympus). At least 10 cells per experiment were evaluated in a post-systolic interval of 1000 ms. The measurements were repeated at least three times. β-adrenergic stimulation was performed with 250 nmol/L isoproterenol, which was given to the medium.

ovarian tissue strips [9] = test: Cryopreservation of ovarian tissue strips: intact follicles; settings: liquid nitrogen 14 days, cultured 14 days
[10] = for the different cell lines, read-out: EC50 concentration (MTT assay)

SMILES: CCCCCCCC/C=C(\CCCCCCCC(=O)O)[N+](=O)[O-] [nitro oleic acid, E-9-nitrooleic acid]
- EC50 [1, 10]: 10 to 50 µM
- cell volume (increase in size to) [2]: 140%

SMILES: CCCCC/C=C\C/C=C\CCCCCCCC(=O)O [linoleic acid, Linoleic acid]
- EC50 [1, 10]: 240 to 260 µM
- cell volume (increase in size to) [2]: 170%

SMILES: CCCCC/C=C\C/C=C(\CCCCCCCC(=O)O)[N+](=O)[O-] [nitro-linoleic acid, E-9-nitrolinoleic acid]
- EC50 [1, 10]: 50 to 100 µM
- cell volume (increase in size to) [2]: 120%

SMILES: CCCCCCCC/C=C\CCCCCCCC(=O)OC[C@H](COP(=O)([O-])OCC[N+](C)(C)C)OC(=O)CCCCCCC/C=C\CCCCCCCC [DOPC, 1,2-dioleoyl-sn-glycero-3-PC]
- viability according to the live/dead staining [3]: high rate of viability
- viability as quantified by the MTT assay [1]: only slightly decreased
- cell volume (increase in size to) [2]: 180%

SMILES: CCCCCCCC/C=C(\CCCCCCCC(=O)OC[C@H](COP(=O)(O)OCCN)OC(=O)CCCCCCC/C(=C\CCCCCCCC)[N+](=O)[O-])[N+](=O)[O-] [Example D, 1,2-di-(9-nitrooleoyl)-sn-3-glycero-phosphatidylethanolamine]
- biocompatibility of coated implants compared to natural PLs [4]: improved biocompatibility of implants several-fold
- mechanical removal of coating substance and workload to pull the catheter through PTFE tubing [5]: Very similar results
- inducible membrane channel activity of TRP channels (TRPV1, 2 and 4, TRPA1): significant decrease of inducible membrane channel activity
- proportion of living cells relative to non-frozen control (sciatic nerve): 89%

SMILES: CCCCCCCC/C=C(\CCCCCCCC(=O)OC[C@H](COP(=O)([O-])OCC[N+](C)(C)C)OC(=O)CCCCCCC/C(=C\CCCCCCCC)[N+](=O)[O-])[N+](=O)[O-] [Example B, 1,2-di-(9-nitrooleoyl)-sn-3-glycerophosphocholine]
- biocompatibility of coated implants compared to natural PLs [4]: improved biocompatibility of implants several-fold
- mechanical removal of coating substance and workload to pull the catheter through PTFE tubing [5]: Very similar results
- inducible membrane channel activity of TRP channels (TRPV1, 2 and 4, TRPA1): significant decrease of inducible membrane channel activity
- proportion of living cells relative to non-frozen control (sciatic nerve): 83%

SMILES: CCCCCCCC/C=C\CCCCCCCC(=O)O[C@H](COC(=O)CCCCCCCCCCCCCCCCC)COP(=O)([O-])OCC[N+](C)(C)C [SOPC, 1-Stearoyl-2-oleoyl-sn-glycero-3-PC, reference compound]
- viability according to the live/dead staining [3]: high rate of viability
- viability as quantified by the MTT assay [1]: only slightly decreased
- increase in LDH versus normoxemia culture (cortical neurons; 10-minutes ischemia): 280 fold
- viability of cortical cells measured after 24 hours (cortical neurons; 10-minutes ischemia): 33%
- increase in LDH versus normoxemia culture (cortical neurons; 30-minutes ischemia): 640 fold
- viability of cortical cells measured after 24 hours (cortical neurons; 30-minutes ischemia): 0%
- cell volume (increase in size to) [2]: 150%
- loss of viability of heart muscle cells after hypoxia ([6]; (10 minutes)): 14%
- loss of viability of heart muscle cells after hypoxia ([6]; (30 minutes)): 40%
- mitochondrial NAD+ content ([6]; first printed value): 3.0 nmol/mg protein
- mitochondrial NAD+ content ([6]; second printed value): 1.1 nmol/mg protein
- proportion of living cells relative to non-frozen control (sciatic nerve): 26%

SMILES: CCCCCCCC/C=C\CCCCCCCC(=O)O [oleic acid, Oleic acid]
- EC50 [1, 10]: 180 to 260 µM
- cell volume (increase in size to) [2]: 200%

SMILES: CCCCC/C=C\CC=C(CCCCCCCC(=O)O[C@H](COC(=O)CCCCCCCCCCCCCCC)COP(=O)([O-])OCC[N+](C)(C)C)[N+](=O)[O-] [Example P7, 1-palmitoyl-2-(9-nitrolinoleoyl)-sn-3-glycerophosphocholine]
- estradiol (ovarian tissue strips [7]): 8.3 ng/mL
- progesterone (ovarian tissue strips [7]): 0.4 ng/mL
- total viability (MTT assay) [1]: 75%
- EC50 ([1]; range over cell lines, read-out: EC50 (MTT assay)): 400 to 3900 µM
- increase in LDH versus normoxemia culture (cortical neurons; 10-minutes ischemia): 130 fold
- viability of cortical cells measured after 24 hours (cortical neurons; 10-minutes ischemia): 70%
- increase in LDH versus normoxemia culture (cortical neurons; 30-minutes ischemia): 290 fold
- viability of cortical cells measured after 24 hours (cortical neurons; 30-minutes ischemia): 52%
- biocompatibility of coated implants compared to natural PLs [4]: improved biocompatibility of implants several-fold
- end of diastole (ED) cytosolic calcium ([8]; after hypoxia): 70 nmol/L
- post systolic (PS) cytosolic calcium ([8]; after hypoxia): 30 nmol
- end of diastole (ED) cytosolic calcium ([8]; after hypoxia and stimulation with isoproterenol): 100 nmol/L
- end of diastole (ED) cytosolic calcium ([8]; normoxic conditions): 30 nmol/L
- post systolic (PS) cytosolic calcium ([8]; normoxic conditions): 10 nmol
- rate of intact follicles relative to the control group (ovarian tissue strips [9]): 98%
- inducible membrane channel activity of TRP channels (TRPV1, 2 and 4, TRPA1): significant decrease of inducible membrane channel activity
- loss of viability of heart muscle cells after hypoxia ([6]; (10 minutes)): 5%
- loss of viability of heart muscle cells after hypoxia ([6]; (30 minutes)): 18%
- mitochondrial NAD+ content ([6]; first printed value): 3.6 nmol/mg protein
- mitochondrial NAD+ content ([6]; second printed value): 3.1 nmol/mg protein
